Assay results: patent publication US20250262209A1, “TREATMENT OF GASTROINTESTINAL DISEASES” (Aclipse Two, Inc., priority 2022, published 2025)

Columns and labels:
Type in all cases: cell-based, human
[1] = test system: monocytes from PBMC, M1-to-M2 macrophage repolarization; assay: M1-to-M2 macrophage repolarization assay; conditions: cytokine analysis (MSD), day 14 supernatant
Description: The purpose of this study was to evaluate the effects of lobeglitazone and other thiazolidinediones on M1-to-M2 macrophage repolarization. The test articles and vehicles used in this study were lobeglitazone sulfate, pioglitazone HCl, and rosiglitazone.
M1-to-M2 macrophage repolarization assay timeline were as follows in Table 13.
Drug concentrations tested in the M1 differentiation assay are as in Table 14.
• (1) Isolate monocytes from PBMC using StemCell® monocyte isolation kit. • (2) Count cell and adjust the cell density to 0.5×10^6 cells/ml with fresh complete differentiation medium (add 10 μl M-CSF stock (100 μg/ml) 10 ml cell mixture to a final concentration of 50 ng/ml). • (3) Seed isolated monocyte 100 μL per well on 96-well plate. • (4) On day 4, add additional 100 μl medium containing M-CSF • (5) On day 6, add stimulator at 5× final concentration (200 μL medium in each well) to a final concentration of 50 ng/ml. • (6) On day 8, remove medium and replenish with 200 μL cytokine free medium, then add test compound (final concentration in μM) and incubate for 4 days. • (7) On day 12, add IL-4 and incubate for 2 days (add 50 μL of 100 ng/ml IL-4 to each well containing 200 μL medium to reach 20 ng/ml). • (8) On day 14, spin down the plates at 300×g for 5 min and collect the supernatant for cytokine quantification. • (9) M1 and M2 associated macrophage cytokines of interest are as follows in Table 15.
The cells are then collected for flow analysis of viability/CD11c/CD163/CD206.
Cell surface marker CD163, CD11c, and CD206 were applied to characterize M2 repolarization via flow cytometry. Controls included No stain and staining with all surface marker antibodies to confirm the optimization of gating strategy.

[2] = test system: monocytes from PBMC differentiated into M2 macrophage; assay: M2 macrophage differentiation assay; conditions: CD163, CD11c, CD206; donor 1 and 2
Description: The purpose of this study was to evaluate the effects of lobeglitazone and other thiazolidinediones on M2 macrophage differentiation. The test articles and vehicles used in this study were lobeglitazone sulfate, pioglitazone HCl, and rosiglitazone.
M2 macrophage differentiation assay timeline was as follows in Table 10.
• (1) Isolate monocytes from PBMC using StemCell® monocyte isolation kit • (2) Count cell and adjust the cell density to 0.5×10^6 cells/ml with fresh complete differentiation medium. Add 5 μL M-CSF stock ([…]) to each 5 ml cell mixture. • (3) Seed isolated monocyte 100 μL per well on 96-well plate. • (4) Add test articles as the plate map using D300e (final concentration in μM). • (5) Differentiate the monocyte to macrophage in the presence of M-CSF to […] for 4 days. • (6) On day 4, add additional medium containing M-CSF. • (7) Add test compounds using D300e (final volume=[…]). • (8) On day 6, add IL-4 at 5× final concentration (IL-4 stock 0.1 mg/ml: dilute 10 μl stock into 10 ml medium for 100 ng/ml. Add 50 μl 100 ng/ml IL-4 to each well containing 200 μL medium to reach 20 ng/ml). • (9) On day 8, spin down the plates at 300×g for 5 min and collect the supernatant for cytokine quantification using MSD. • (10) M2 associated macrophage cytokines of interest are listed below in Table 12.
• (11) Collect cells for flow analysis of viability/CD11c/CD163/CD206.
Flow cytometry and surface marker CD163, CD11c, and CD206 were applied to characterize M2 repolarization. No stain and all stain with surface marker antibody to confirm the optimization of gating strategy.

[3] = test system: monocytes differentiated to M1 macrophage; assay: M1 macrophage differentiation assay; conditions: TNF-α, IL-1b, IL-6, IL-12, IL-23 in supernatant on day 7 (MSD); concentrations of Table 9
Description: The purpose of this study was to evaluate the effects of lobeglitazone and other thiazolidinediones on M1 macrophage differentiation. The test articles and vehicles used in this study were lobeglitazone sulfate, pioglitazone HCl, and rosiglitazone.
M1 macrophage differentiation assay timeline was as follows in Table 8.
Drug concentrations tested in the M1 differentiation assay are as in Table 9.
• (1) Revive frozen monocytes. • (2) Count cells and adjust the cell density to 0.5×10^6 cells/ml with fresh complete differentiation medium (RPMI1640+10% FBS+1% PS plus GM-CSF or M-CSF at 50 ng/ml). • (3) Seed isolated monocyte 100 μL per well on 96-well plate. • (4) Add test articles as the plate map using D300e (final concentration in μM). • (5) Differentiate the monocyte to macrophage in the presence of GM-CSF to M1, or M-CSF to M2 for 5 days. • (6) On day 5, add cytokines at 2× final concentration. • (6a) Prepare medium containing GM-CSF for M1 and M-CSF for M2. • (6b) Add corresponding activator to reach 2× final working concentration: (i) IFNγ stock 0.2 mg/ml: add 2.5 μL stock into 5 ml complete differentiation medium for 100 ng/ml; (ii) LPS stock 1.0 mg/ml: dilute to 20 μg/ml by mixing 2 μL stock into 100 μl medium; then add 10 μl 20 μg/ml LPS to 5 ml complete differentiation medium for 40 ng/ml; (iii) IL-4 stock 0.1 mg/ml: dilute 2 μL stock into 5 ml complete differentiation medium for 40 ng/ml. • (6c) Add 100 μL cytokine containing differentiating medium to each well, and total volume of each well is 200 μL. • (6d) Add test compound again using D300e. Make sure to set the final volume as 200 μL. • (7) Incubate cytokine and test compound for 48 hours. • (8) On day 7, spin down the plates at 300×g for 5 min and collect the supernatant for cytokine quantification using MSD. • (9) M1 associated macrophage cytokines TNF-α, IL-1b, IL-6, IL-12, and IL-23 were quantified.

SMILES	concentration showing remarkable promotion of MDC expression [1]	concentration at which M2 repolarization was promoted (M2 macrophage surface markers, flow cytometry) [2]	M1 macrophage cytokines expression [3]
CCc1ccc(CCOc2ccc(CC3SC(=O)NC3=O)cc2)nc1.Cl (racemic) [pioglitazone, (±)-5-[p-[2-(5-Ethyl-2-pyridyl)ethoxy]benzyl]-2,4-thiazolidinedione monohydrochloride]	5 µM	~10 µM	promoted the M1 macrophage cytokines in a dose-dependent manner
CN(CCOc1ccc(CC2SC(=O)NC2=O)cc1)c1ccccn1 (racemic) [rosiglitazone, (RS)-5-[4-(2-[methyl(pyridin-2-yl)amino]ethoxy)benzyl]thiazolidine-2,4-dione]	6.4 µM	~0.4 µM	promoted the M1 macrophage cytokines in a dose-dependent manner
